According to patent US20100226888A1, “Ethanol Enhances the Complete Replication of Hepatitis C Virus: the Role of Acetaldehyde” (priority 2009, published 2010):
Where two headings read alike, the source gives them in different places.

Assays:
[1] = system: SgJFH1-Luc subgenomic HCV replicon (genotype 2a); type: cell-based, hepatitis C virus
Description: (§1) The genotype 2a HCV constructs, pJFH1 (produces infectious virus particles), replicative-null pJFH1-GND, and subgenomic pSgJFH1-Luc (contains a luciferase reporter gene), are described elsewhere (23, 24). Subgenomic HCV replicons are bicistronic constructs that express only the nonstructural proteins of HCV under the control of encephalocarditis virus IRES; neomycin resistance or firefly luciferase gene is under the control of the HCV IRES (15, 22, 24). These replicons support HCV RNA replication but no virus is formed in cell culture. Huh7 cell clones (SgPC2 cells, Clone B) supporting continuous replication of subgenomic HCV replicon of genotype 1b (Con1 sequence) were also used (17, 22).
After various treatments, SgJFH1 Luc RNA-transfected cells were lysed with 1× Reporter Lysis Buffer, and the luciferase activity was determined using Luciferase Reporter Assay Kit (Promega Corp.) (24). Luciferase activities were normalized by total protein content, determined with bicinchoninic acid (BCA) assay kit from Pierce.
To test whether the JFH1 RNA replication was also affected by ethanol, Huh7 cells were transfected with JFH1 SgJFH1-Luc RNA and exposed the cells to ethanol for 48 hours. Then, HCV replication was monitored by measuring the firefly luciferase activity (24).

JFH1 HCV (genotype 2a) = type: cell-based, hepatitis C virus
[2] = system: Con1 subgenomic HCV replicon (genotype 1b); experiment: Con1 subgenomic replicon HCV RNA in SgPC2 cells (Northern blot); type: cell-based, hepatitis C virus; details: 24 h; for HCV RNA level / HCV replication in SgPC2 cells: 5 μM acetaldehyde, 5 μM acetate, 0.2% isopropyl alcohol, 2 mM acetone, 25 mM tert-butanol, 5 mM lactate; for potentiation of HCV RNA replication by ethanol, acetaldehyde, isopropyl alcohol, acetone, and acetate: 30 min pretreatment with 5 μM lovastatin, 5 μM fluvastatin, 5 μg/ml TOFA or 5 μg/ml cerulenin
Description: as §1
(§2) The in vitro transcription, and transfection of HCV RNA, and Huh7 human hepatoma cell culture were performed as previously described (17). For experiments involving stable clones, cells were cultured in medium supplemented with 0.4-0.5 mg/mL G418, and G418 was removed from cell culture medium one day prior to cell treatments, which were performed as described in Results. For the in vitro infectivity assays, 2 ml of the extracellular medium from JFH1 RNA-transfected cells was used to inoculate naive Huh7 or Huh7.5 cells with 3 ml of fresh medium, as described (23, 25). Treatments were initiated 24 hours after infection and the cells were harvested after another 24 or 48 hrs.
(§3) Intracellular RNA extraction and northern blots were carried out, as described (16, 17). DNA probes were prepared from nucleotides (“nt.”) 4128-8273 or 358-2816 of JFH1, generated with ScaI and ApaL I, respectively, or nt. 3669 to 6016 of the Con1 subgenomic replicons. Images were quantified by densitometry, using Optiquant Cyclone 4.00 (Perkin Elmer), and data were normalized by glyceraldehyde 3-phosphate dehydrogenase (GAPDH) mRNA content.

NADH/NAD+ ratio = experiment: NADH/NAD+ enzymatic NADH recycling assay; type: cell-based, human; details: for NADH/NAD+ ratio in ethanol-treated cells: with cyanamide, 4 MP, and DADS, data not shown; for NADH/NAD+ ratio: SgPC2 cells, 0.2% ethanol, 5 μM acetaldehyde, 5 μM acetate, 0.2% isopropyl alcohol, 2 mM acetone, 25 mM tert-butanol
JFH1 virus = experiment: HCV RNA in naive Huh7 or Huh7.5 cells inoculated with JFH1 virus-containing medium; type: cell-based, hepatitis C virus
Method: as §2
The total intracellular RNA was obtained from cells using Trizol (Invitrogen). To obtain extracellular HCV RNA, cell culture medium samples were first treated with RNase A (100 μg/ml) for 30 min at room temperature, then RNA was extracted using Trizol LS and glycogen as a carrier. HCV RNA was quantified by qRT-PCR as described (17, 23). For JFH1, the primer sequences were 5′ […] 3′ (nt 146 to 164; forward, SEQ ID NO.: 1), and 5′ […] 3′ (nt 277 to 295; reverse, SEQ ID NO.: 2), and the sequence of the fluorogenic probe, labeled with 6-FAM and TAMRA (Biosearch Technologies, Inc.), was 5′ […] 3′ (nt 168 to 188, SEQ ID NO.: 3). The primer and probe sequences for qRT-PCR analysis of Con1 RNA's were described previously (17). Standard curves were generated using in vitro-transcribed HCV RNA's. Intracellular HCV RNA levels were normalized by 18 S rRNA or GAPDH mRNA.

[3] = system: Con1 HCV subgenomic replicon; experiment: Con1 subgenomic replicon HCV RNA in Clone B cells; type: cell-based, hepatitis C virus; details: 24 hrs, response compared with SgPC2 cells
Description: as §1, §3

[4] = system: intracellular cholesterol; experiment: Total intracellular cholesterol content in SgPC2 cells; type: cell-based, human; details: 24 h
Method: FIG. 7. […] SgPC2 cells were treated for 24 h with (A and B) 0.2% ethanol, 5 μM acetaldehyde, 0.2% isopropyl alcohol, 2 mM acetone, 5 μM acetate±30 min pretreatment with (A) 5 μM lovastatin, 5 μM fluvastatin, (B) 5 μg/ml TOFA, 5 μg/ml cerulenin, or with (C) 2 mM β-mercaptopropionic acid (β-MPA). Then, HCV RNA levels were monitored by Northern blot and quantified by densitometry (n=3). D, SgPC2 cells, treated for 24 h with ethanol, acetaldehyde, acetone, and acetate±lovastatin, were monitored for cholesterol levels (n=3). Lovastatin was activated, as described, before use (29). *, indicates statistically significant difference for indicated sample sizes (p<0.05)

[5] = system: Huh7 human hepatoma cells
Method: NADH and NAD+ levels were determined by enzymatic NADH recycling assay, using the NAD+/NADH Quantification Kit from Biovision, per manufacturers recommendations with an optional filtration step that used Microcon YM-10 (Millipore). Total ATP content was measured using Somatic Cell ATP Assay Kit from Sigma-Aldrich. The data were normalized by total protein content, determined with BCA assay kit from Pierce.
To examine whether ethanol increased the complete replication of HCV, positive-sense genomic JFH1 RNA was produced by in vitro transcription, using T7 RNA polymerase, and transfected into Huh7 human hepatoma cells. Then, the transfected cells were exposed to 0-1.0% (v/v; 0-172 mM) ethanol once daily with a change of medium each day for 48 hrs. Then, the cells and the cell culture medium were harvested and analyzed for intracellular and RNase A-resistant extracellular HCV RNA's by a combination of Northern blots and qRT-PCR.

HCV = details: references 53, 54; cited from earlier work
[6] = 0.2% ethanol ± 0.1 mM 4 MP plus 25 μM DADS
[7] = acetaldehyde at physiologically relevant concentrations, 24 hrs
[8] = BSO with 2 mM GSH or GSH ester, 24 hrs

glucose oxidase [GO]
effect on the suppression of subgenomic JFH1 RNA replication by BSO [1]: exacerbated the suppression
decrease of intracellular JFH1 RNA (JFH1 HCV (genotype 2a); 0.25 mU/mL GO + glucose, 24 hrs): 30±8%
effect on the suppression of HCV RNA by BSO (JFH1 HCV (genotype 2a); GO + glucose after 16 hr pre-treatment with 20 μM BSO, 24 hrs): exacerbated the suppression

C=CCSSCC=C [DADS]
potentiation of HCV replication by ethanol [2, 6]: suppressed
NADH/NAD+ ratio in ethanol-treated cells (NADH/NAD+ ratio): decreases

CC=O [acetaldehyde]
HCV RNA content in non-virus producing JFH1 cells [1, 7]: significantly increased
HCV RNA level / HCV replication in SgPC2 cells [2]: elevated
HCV replication in RIG-1-defective Huh7.5 cells (JFH1 virus; FIG. 5, also data not shown): increase
HCV replication in naive cells infected with virus-containing medium (JFH1 virus; Huh7.5 cells, acetaldehyde 24 hrs): significant increases
NADH/NAD+ ratio (NADH/NAD+ ratio; 3 h): increases
HCV RNA content in virus-producing JFH1 cells (JFH1 HCV (genotype 2a); [7]): significantly increased
HCV RNA in Clone B cells [3]: responded similarly
total intracellular cholesterol content [4]: increased

OO [H2O2, Hydrogen peroxide]
cytotoxicity in JFH1 cells ([5]; 100 μM H2O2): some cytotoxicity
cytotoxicity in JFH1 cells ([5]; 25 and 50 μM H2O2): clearly within the subtoxic range
JFH1 RNA levels (JFH1 HCV (genotype 2a); 25, 50, and 100 μM bolus H2O2, 24 hrs): decreased

C/C=C/C/C=C/CCC(=O)[C@H]1O[C@H]1C(N)=O [cerulenin]
potentiation of HCV RNA replication by ethanol, acetaldehyde, isopropyl alcohol, acetone, and acetate ([2]; SgPC2 cells): almost completely inhibited
basal level of HCV replication (HCV): suppress

O=C(O)CCS [β-mercaptopropionic acid]
increase in HCV replication ([2]; 2 mM β-mercaptopropionic acid, SgPC2 cells): 15.2±1.7 fold

CC(O)C(=O)O (centres unmarked) [lactate]
HCV RNA level / HCV replication in SgPC2 cells [2]: little to no effect
NADH levels (NADH/NAD+ ratio; 5 mM lactate, 3 h): 235.9±11.9 % of the control level
total intracellular cholesterol content [4]: no significant effect

N[C@@H](CCC(=O)N[C@@H](CS)C(=O)NCC(=O)O)C(=O)O [GSH, glutathione]
restoration of intracellular HCV RNA in BSO-treated cells (JFH1 HCV (genotype 2a); [8]): could not restore

CCOC(=O)CNC(=O)[C@H](CS)NC(=O)CC[C@H](N)C(=O)O [GSH ethyl ester]
restoration of extracellular HCV RNA in BSO-treated cells (JFH1 HCV (genotype 2a); [8]): partially restored
restoration of intracellular HCV RNA in BSO-treated cells (JFH1 HCV (genotype 2a); [8]): partially restored

CC(C)=O [acetone]
HCV RNA level / HCV replication in SgPC2 cells [2]: increased
NADH/NAD+ ratio (NADH/NAD+ ratio; 3 h): increases
total intracellular cholesterol content [4]: increased

Cc1cn[nH]c1 [4 MP, 4-methylpyrazole]
potentiation of HCV replication by ethanol [2, 6]: suppressed
NADH/NAD+ ratio in ethanol-treated cells (NADH/NAD+ ratio): decreases

CC[C@H](C)C(=O)O[C@H]1C[C@@H](C)C=C2C=C[C@H](C)[C@H](CC[C@@H]3C[C@@H](O)CC(=O)O3)[C@H]21 [lovastatin, Lovastatin]
potentiation of HCV RNA replication by ethanol, acetaldehyde, isopropyl alcohol, acetone, and acetate ([2]; SgPC2 cells): almost completely inhibited
basal level of HCV replication (HCV): suppress
increase of intracellular cholesterol content by ethanol, acetaldehyde, acetone, and acetate ([4]; ± lovastatin): attenuated

CCCCCCCCCCCCCCOc1ccc(C(=O)O)o1 [TOFA, 5-(Tetradecyloxy)-2-furoic acid]
potentiation of HCV RNA replication by ethanol, acetaldehyde, isopropyl alcohol, acetone, and acetate ([2]; SgPC2 cells): almost completely inhibited
basal level of HCV replication (HCV): suppress

N#CN [cyanamide]
potentiation of HCV replication by ethanol ([2]; 0.2% ethanol ± 0.1 mM cyanamide): suppressed
NADH/NAD+ ratio in ethanol-treated cells (NADH/NAD+ ratio): decreases

CC(C)O [isopropyl alcohol]
HCV RNA level / HCV replication in SgPC2 cells [2]: increased
NADH/NAD+ ratio (NADH/NAD+ ratio; 3 h): increases

CC(C)(C)O [tert-butanol]
HCV RNA level / HCV replication in SgPC2 cells [2]: did not elevate
NADH/NAD+ ratio (NADH/NAD+ ratio; 3 h): did not elevate

CC(=O)O [acetate]
HCV RNA level / HCV replication in SgPC2 cells [2]: increased
NADH/NAD+ ratio (NADH/NAD+ ratio; 3 h): increases
total intracellular cholesterol content [4]: increased
